For data set [1], the system named is hyperuricemia rats. Briefly: pharmacodynamic screening in rat hyperuricemia model (exogenous uric acid administered, uric acid decomposition inhibited). In kind it is in vivo, SD rats. Particulars: for Serum uric acid level, Value after 3 h of drug administration: 10 mg/kg oral, 3 h after first administration, model group 174.4 ± 39.9, blank 53.9 ± 12.8; for uric acid-lowering effect (in words): 3 h after drug administration, febuxostat and ethyl ester 14 mg/kg oral; for uric acid-lowering effect (in words) / p, uric acid level 3 h after drug administration compared with the blank group: F compounds 10 mg/kg; for p, uric acid level 3 h after drug administration compared with the blank group: febuxostat 14 mg/kg oral.

Data set [2] concerns ICR mice. The conditions noted are these: for Autopsy results of survival animals: 3000 mg/kg ig; for Abnormal reactions within 12 hours from ig administration: F compounds 3000 mg/kg; for Number of dead animals: ig 3000 mg/kg, 10 mice; for death, preliminary experiments / toxic reactions, preliminary experiments: intragastric 1600 mg/kg.
Data set [3] in a line: in vivo. Particulars: mouse, po.
Setting [4] is: formal test, all dose groups, febuxostat high-dose group.
Where [5] appears, read: formal test, febuxostat high-dose group.

Like-named read-outs stand apart in the source and are kept apart here. A value given as a limit tells only on which side of the number the result lay.

What is called LD50 is the dose at which mortality reaches 50%. A low value points to a more toxic substance. As to `Cc1nc(-c2ccc(OCC(C)C)c(C#N)c2)sc1C(=O)OCCO` [Compound F-1A], in data set [1], the “Serum uric acid level, Value after 3 h of drug administration” value (“Serum uric acid level, Value after 3 h” below) is listed as 71.0 ± 24.4^a3b3c1 μmol/L. Besides, the “Autopsy results of survival animals” value in data set [2] (formal test) was “No obvious abnormalities were observed in the organs”. The “animal deaths within 24 hours from the administration” value (“animal deaths within 24 hours” below) in data set [2] (setting [4]) is reported as “no animal deaths were observed”. Further, the “Abnormal reactions within 12 hours from ig administration” value (“Abnormal reactions within 12 hours” for short) in data set [2] (setting [5]) was “no abnormalities were observed”. Besides, the “Number of dead animals” value in data set [2] stood at 0. In addition, in data set [2] (mice), the “death, preliminary experiments” value was “no animal died” and the “toxic reactions, preliminary experiments” value is given as “no obvious toxicity symptom was observed”. The LD50 at 14 days in data set [3] worked out at 3000 mg/kg. In data set [3] (3000 mg/kg), this compound showed a median lethal dose (LD50) at 14 days of no less than 3000 mg/kg.
With `Cc1nc(-c2ccc(OCC(C)C)c(C#N)c2)sc1C(=O)OCCCN(C)CCCO` [Compound F-3B], in data set [1], the “Serum uric acid level, Value after 3 h” value is 66.3 ± 17.1^a3b3 μmol/L; the “uric acid-lowering effect (in words)” value is reported as “very obvious uric acid-lowering effects”; the “p, uric acid level 3 h after drug administration compared with the blank group” value is listed as “no significant difference”. For the same compound, the “Autopsy results of survival animals” value in data set [2] (formal test) is recorded as “No obvious abnormalities were observed in the organs”. In addition, in data set [2] (setting [4]), the “animal deaths within 24 hours” value is recorded as “no animal deaths were observed”. Also, the “Abnormal reactions within 12 hours” value in data set [2] (setting [5]) was “no abnormalities were observed”. The “Number of dead animals” value in data set [2] is given as 0. For the same compound, in data set [2] (mice), the “death, preliminary experiments” value was “no animal died” and the “toxic reactions, preliminary experiments” value is “no obvious toxicity symptom was observed”. This compound also yielded an LD50 at 14 days in data set [3] of 3000 mg/kg. The compound further yielded a 50% lethal dose (LD50) at 14 days in data set [3] (3000 mg/kg) of no less than 3000 mg/kg.
Turning to `Cc1nc(-c2ccc(OCC(C)C)c(C#N)c2)sc1C(=O)N1CCC[C@H]1C(=O)O` [Compound F-2D], in data set [1], the “Serum uric acid level, Value after 3 h” value is recorded as 69.1 ± 23.4^a3b3c1 μmol/L. Also, the “Autopsy results of survival animals” value in data set [2] (formal test) is “No obvious abnormalities were observed in the organs”. Further, in data set [2] (setting [4]), the “animal deaths within 24 hours” value was “no animal deaths were observed”. Further, the “Abnormal reactions within 12 hours” value in data set [2] (setting [5]) was “no abnormalities were observed”. Further, the “Number of dead animals” value in data set [2] is given as 0. In data set [2] (mice), the “death, preliminary experiments” value is reported as “no animal died” and the “toxic reactions, preliminary experiments” value is given as “no obvious toxicity symptom was observed”. The compound further had an LD50 at 14 days in data set [3] of 3000 mg/kg. Moreover, the LD50 at 14 days in data set [3] (3000 mg/kg) is no less than 3000 mg/kg.
Take `Cc1nc(-c2ccc(OCC(C)C)c(C#N)c2)sc1C(=O)NC(C)C(=O)O` (centres unmarked) [Compound F-2B]: in data set [1], the “Serum uric acid level, Value after 3 h” value is 70.3 ± 16.4^a3b3c1 μmol/L. Besides, in data set [2] (formal test), the “Autopsy results of survival animals” value was “No obvious abnormalities were observed in the organs”. Further, in data set [2] (setting [4]), the “animal deaths within 24 hours” value is recorded as “no animal deaths were observed”. In addition, the “Abnormal reactions within 12 hours” value in data set [2] (setting [5]) is reported as “no abnormalities were observed”. The “Number of dead animals” value in data set [2] came to 0. The LD50/Maximum dose in data set [2] (ig once, mice, 14 days observation, Bliss method, febuxostat: LD50, F compounds: maximum administration dose, no deaths) stood at 3000 mg/kg. For the same compound, in data set [2] (mice), the “death, preliminary experiments” value was “no animal died” and the “toxic reactions, preliminary experiments” value was “no obvious toxicity symptom was observed”.
Turning to `Cc1nc(-c2ccc(OCC(C)C)c(C#N)c2)sc1C(=O)OCC(O)CO` (centres unmarked) [Compound F-1B], in data set [1], the “Serum uric acid level, Value after 3 h” value is on record as 67.5 ± 19.4^a3b3 μmol/L; the “uric acid-lowering effect (in words)” value is recorded as “very obvious uric acid-lowering effects”; the “p, uric acid level 3 h after drug administration compared with the blank group” value was “no significant difference”. Also, the “Autopsy results of survival animals” value in data set [2] (formal test) is reported as “No obvious abnormalities were observed in the organs”. The “Abnormal reactions within 12 hours” value in data set [2] (setting [5]) was “no abnormalities were observed”. In addition, the “Number of dead animals” value in data set [2] was found to be 0. In data set [2] (mice), the “toxic reactions, preliminary experiments” value was “no obvious toxicity symptom was observed”. Besides, the “animal deaths within 24 hours” value in data set [2] (mouse, in vivo) is listed as “no animal deaths were observed”. Further, in data set [3], the LD50 at 14 days came to 3000 mg/kg. In data set [3] (3000 mg/kg), this compound displayed an LD50 at 14 days of no less than 3000 mg/kg.
Take `Cc1nc(-c2ccc(OCC(C)C)c(C#N)c2)sc1C(=O)NCC(=O)O` [Compound F-2A]: in data set [1], the “Serum uric acid level, Value after 3 h” value was 78.3 ± 25.1^a3b3c2 μmol/L and the “p, uric acid level 3 h after drug administration compared with the blank group” value is less than 0.01. Also, the “Autopsy results of survival animals” value in data set [2] (formal test) is recorded as “No obvious abnormalities were observed in the organs”. Further, the “animal deaths within 24 hours” value in data set [2] (setting [4]) was “no animal deaths were observed”. For the same compound, the “Abnormal reactions within 12 hours” value in data set [2] (setting [5]) is listed as “no abnormalities were observed”. Besides, the “Number of dead animals” value in data set [2] is 0. Moreover, in data set [2] (mice), the “death, preliminary experiments” value is “no animal died” and the “toxic reactions, preliminary experiments” value is recorded as “no obvious toxicity symptom was observed”. The compound also showed an LD50 at 14 days in data set [3] of 3000 mg/kg. In data set [3] (3000 mg/kg), this compound registered an LD50 at 14 days of no less than 3000 mg/kg.
Consider `Cc1nc(-c2ccc(OCC(C)C)c(C#N)c2)sc1C(=O)NC1C(O)OC(CO)C(O)C1O` (centres unmarked) [Compound F-4A], for which, in data set [1], the “Serum uric acid level, Value after 3 h” value is 71.4 ± 19.6^a3b3c1 μmol/L. Moreover, in data set [2] (formal test), the “Autopsy results of survival animals” value is listed as “No obvious abnormalities were observed in the organs”. Besides, in data set [2] (setting [5]), the “Abnormal reactions within 12 hours” value was “no abnormalities were observed”. In addition, in data set [2], the “Number of dead animals” value is reported as 0. For the same compound, the “toxic reactions, preliminary experiments” value in data set [2] (mice) was “no obvious toxicity symptom was observed”. In addition, in data set [2] (mouse, in vivo), the “animal deaths within 24 hours” value was “no animal deaths were observed”. The values for the LD50 at 14 days in data set [3] and in data set [3] (3000 mg/kg) were 3000 mg/kg and no less than 3000 mg/kg, respectively.

The values above are taken from patent US11401247B2, “Thiazole-5-carboxylic acid derivative and preparation method and use thereof” (XIANGBEI WELMAN PHARMACEUTICAL CO., LTD, priority 2018, dated 2022).
